Assays:
[1] = biological target: T1, KRAS(G12D)/SOS1 (Homo sapiens, UniProt P01116, G12D); test: KRAS(G12D)/SOS1 homogeneous time-resolved fluorescence (HTRF) assay; assay type: binding; details: absence of GTP, 4° C. for 3 hr
T1 construct: purchased Cisbio 63ADK000CB16PEG
Method: The test compound was mixed and incubated with reaction components, incubated in a sealed plate at 4° C. for 3 hr and fluorescence was measured using a PerkinElmer Envision plate reader.

[2] = tested on: AsPC-1 human pancreatic adenocarcinoma; test: CellTiter-Glo cancer cell line proliferation assay, AsPC-1; assay type: cell-based; details: Homo sapiens, ASPC1, 24 hr
Method: (§1) Cell lines were cultured according to ATCC and recommendations.
(§2) CellTiter-Glo® Reagent Cancer Cell Line Proliferation Assays
(§3) Cells were plated in 96-well tissue culture plates at 4,000 cells/well and incubated at 37° C./5% CO2 for 24 hr in 100 μl of media. […] Cells were then treated with test compounds at various concentrations with a final concentration of 0.5% DMSO/well, and then incubated at 37° C./5% CO2 for 24 hr. 100 μl of CellTiter-Glo® Reagent (Promega Corporation, Madison, WI) was added to each well and processed according manufacturer's protocol. Results were analyzed and IC50-values were calculated in GraphPad 7 software.

[3] = tested on: A-427 human lung carcinoma; test: CellTiter-Glo cancer cell line proliferation assay, A-427; assay type: cell-based; details: Homo sapiens, A-427, 24 hr, read-out: A427 at 24 hrs, IC50
Method: as §1, §2, §3

T1 sequence (P01116 1-188 isoform P01116-2 G12D): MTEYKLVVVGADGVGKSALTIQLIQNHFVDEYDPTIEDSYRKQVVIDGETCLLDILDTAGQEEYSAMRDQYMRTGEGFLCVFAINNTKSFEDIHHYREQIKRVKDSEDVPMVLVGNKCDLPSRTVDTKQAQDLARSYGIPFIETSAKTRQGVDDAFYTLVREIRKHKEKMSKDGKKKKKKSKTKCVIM

SMILES	IC50 [1]	IC50 [2]	IC50 [3]
CN1C[C@H](N2CCN(CC3CCN(c4ccc5c(c4)C(=O)N(C4CCC(=O)NC4=O)C5=O)CC3)CC2)C[C@@H]1COc1nc(N2CC3CCC(C2)N3)c2cnc(-c3cc(O)cc4ccccc34)c(F)c2n1 (some centres unmarked) [Compound 34]	< 100 nM	> 1000 nM	> 1000 nM
CN1C[C@H](N2CCN(CC3CCN(c4cccc5c4C(=O)N(C4CCC(=O)NC4=O)C5=O)CC3)CC2)C[C@@H]1COc1nc(N2CC3CCC(C2)N3)c2cnc(-c3cc(O)cc4ccccc34)c(F)c2n1 (some centres unmarked) [Compound 35]	< 100 nM	> 1000 nM	> 1000 nM
CN1C[C@H](N2CCN(Cc3ccc4c(c3)C(=O)N(C3CCC(=O)NC3=O)C4=O)CC2)C[C@@H]1COc1nc(N2CC3CCC(C2)N3)c2cnc(-c3cc(O)cc4ccccc34)c(F)c2n1 (some centres unmarked) [Compound 36]	< 100 nM	> 1000 nM	> 1000 nM
CN1C[C@H](N2CCC(C(=O)Nc3ccc4c(c3)CN(C3CCC(=O)NC3=O)C4=O)CC2)C[C@@H]1COc1nc(N2CC3CCC(C2)N3)c2cnc(-c3cccc4cccc(Cl)c34)c(F)c2n1 (some centres unmarked) [Compound 49]	100 to 1000 nM	–	–
O=C1CCC(N2Cc3cc(N4CCC(CN5CCN(CC6(COc7nc(N8CC9CCC(C8)N9)c8cnc(-c9cc(O)cc%10ccccc9%10)c(F)c8n7)CC6)CC5)CC4)ccc3C2=O)C(=O)N1 (centres unmarked) [Compound 52]	< 100 nM	–	100 to 1000 nM
CN1C[C@H](C2CCC(C(=O)NCCOc3ccc4c(c3)C(=O)N(C3CCC(=O)NC3=O)C4=O)CC2)C[C@@H]1COc1nc(N2CC3CCC(C2)N3)c2cnc(-c3cc(O)cc4ccccc34)c(F)c2n1 (some centres unmarked) [Compound 53]	< 100 nM	–	> 1000 nM
CN1CC(N2CCC(C(=O)NCCOCCOc3ccc4c(c3)C(=O)N(C3CCC(=O)NC3=O)C4=O)CC2)C[C@@H]1COc1nc(N2CC3CCC(C2)N3)c2cnc(-c3cc(O)cc4ccccc34)c(F)c2n1 (some centres unmarked) [Compound 54]	< 100 nM	–	> 1000 nM
C#Cc1cccc2cccc(-c3ncc4c(N5CC6CCC(C5)N6)nc(OC[C@H]5CC[C@@H](CN6CCN(CC7CCN(c8cc9c(cc8F)C(=O)N(C8CCC(=O)NC8=O)C9=O)CC7)CC6)N5C)nc4c3F)c12 (some centres unmarked) [Compound 55]	< 100 nM	–	> 1000 nM
Cc1cccc2cccc(-c3ncc4c(N5CC6CCC(C5)N6)nc(OCC5(CN6CCN(CC7CCN(c8ccc9c(c8)C(=O)N(C8CCC(=O)NC8=O)C9=O)CC7)CC6)CC5)nc4c3F)c12 (centres unmarked) [Compound 58]	< 100 nM	–	–
CN1[C@@H](COc2nc(N3CC4CCC(C3)N4)c3cnc(-c4cc(O)cc5ccccc45)c(F)c3n2)CC[C@H]1CN1CCN(CC2CCN(c3ccc4c(c3)C(=O)N(C3CCC(=O)NC3=O)C4=O)CC2)CC1 (some centres unmarked) [Compound 60]	< 100 nM	–	> 1000 nM
C#Cc1cccc2cc(O)cc(-c3ncc4c(N5CC6CCC(C5)N6)nc(OCC5(CN6CCN(Cc7ccc8c(c7)CN(C7CCC(=O)NC7=O)C8=O)CC6)CC5)nc4c3F)c12 (centres unmarked) [Compound 61]	< 100 nM	–	100 to 1000 nM
C#Cc1cccc2cccc(-c3ncc4c(N5CC6CCC(C5)N6)nc(OC[C@H]5CC[C@@H](CN6CCN(CCC7CCN(c8ccc9c(c8)C(=O)N(C8CCC(=O)NC8=O)C9=O)CC7)CC6)N5C)nc4c3F)c12 (some centres unmarked) [Compound 62]	< 100 nM	–	100 to 1000 nM
Cc1cccc(-c2ncc3c(N4CC5CCC(C4)N5)nc(OCC4(CN5CCN(CC6CCN(c7ccc8c(c7)C(=O)N(C7CCC(=O)NC7=O)C8=O)CC6)CC5)CC4)nc3c2F)c1C (centres unmarked) [Compound 63]	< 100 nM	–	> 1000 nM
C#Cc1c(F)ccc2cc(O)cc(-c3ncc4c(N5CC6CCC(C5)N6)nc(OCC5(CN6CCN(Cc7ccc8c(c7)C(=O)N(C7CCC(=O)NC7=O)C8=O)CC6)CC5)nc4c3F)c12 (centres unmarked) [Compound 64]	< 100 nM	–	> 1000 nM
C#Cc1cccc2cc(O)cc(-c3ncc4c(N5CC6CCC(C5)N6)nc(OCC5(CN6CCN(Cc7ccc8c(c7)C(=O)N(C7CCC(=O)NC7=O)C8=O)CC6)CC5)nc4c3F)c12 (centres unmarked) [Compound 65]	< 100 nM	–	> 1000 nM
C#Cc1cccc2cccc(-c3ncc4c(N5CC6CCC(C5)N6)nc(OCC5(CN(C)CC6CCN(c7ccc8c(c7)C(=O)N(C7CCC(=O)NC7=O)C8=O)CC6)CC5)nc4c3F)c12 (centres unmarked) [Compound 67]	< 100 nM	–	100 to 1000 nM
C#Cc1cccc2cc(O)cc(-c3ncc4c(N5CC6CCC(C5)N6)nc(OC[C@H]5CC[C@@H](CN6CCN(CC7CCN(c8ccc9c(c8)C(=O)N(C8CCC(=O)NC8=O)C9=O)CC7)CC6)N5C)nc4c3F)c12 (some centres unmarked) [Compound 68]	< 100 nM	–	> 1000 nM
C#Cc1cccc2cc(O)cc(-c3ncc4c(N5CC6CCC(C5)N6)nc(OC[C@H]5CC[C@@H](CN6CCN(CC7CCN(c8ccc9c(c8)CN(C8CCC(=O)NC8=O)C9=O)CC7)CC6)N5C)nc4c3F)c12 (some centres unmarked) [Compound 69]	< 100 nM	–	> 1000 nM

SMILES	IC50 [1]	IC50 [2]	IC50 [3]
COc1cc(-c2ncc3c(N4CC5CCC(C4)N5)nc(OCC4(CN5CCN(CC6CCN(c7ccc8c(c7)CN(C7CCC(=O)NC7=O)C8=O)CC6)CC5)CC4)nc3c2F)c2ccccc2c1 (centres unmarked) [Compound 70]	> 1000 nM	–	> 1000 nM
C#Cc1cccc2cccc(-c3ncc4c(N5CC6CCC(C5)N6)nc(OC[C@H]5C[C@@H](N6CCN(CCC7CCN(c8ccc9c(c8)C(=O)N(C8CCC(=O)NC8=O)C9=O)CC7)CC6)CN5C)nc4c3F)c12 (some centres unmarked) [Compound 74]	< 100 nM	–	> 1000 nM
CN(CC1CCN(c2ccc3c(c2)C(=O)N(C2CCC(=O)NC2=O)C3=O)CC1)CC1(COc2nc(N3CC4CCC(C3)N4)c3cnc(-c4cc(O)cc5ccccc45)c(F)c3n2)CC1 (centres unmarked) [Compound 75]	< 100 nM	–	> 1000 nM
O=C1CCC(N2C(=O)c3ccc(N4CCN(C(=O)C5CCN(CC6(COc7nc(N8CC9CCC(C8)N9)c8cnc(-c9cc(O)cc%10ccccc9%10)c(F)c8n7)CC6)CC5)CC4)cc3C2=O)C(=O)N1 (centres unmarked) [Compound 76]	< 100 nM	–	> 1000 nM
C#Cc1cccc2cc(O)cc(-c3ncc4c(N5CC6CCC(C5)N6)nc(OCC5(CN6CCN(CC7CCN(CC(=O)N[C@@H](C(=O)N8C[C@@H](O)C[C@@H]8C(=O)NCc8ccc(-c9scnc9C)cc8)C(C)(C)C)CC7)CC6)CC5)nc4c3F)c12 [Compound 82]	–	> 1000 nM	> 1000 nM
C#Cc1cccc2cc(O)cc(-c3ncc4c(N5CC6CCC(C5)N6)nc(OCC5(CN6CCN(C(=O)N7CCN(c8ccc9c(c8)CN(C8CCC(=O)NC8=O)C9=O)CC7)CC6)CC5)nc4c3F)c12 (centres unmarked) [Compound 88]	–	100 to 1000 nM	> 1000 nM
C#Cc1c(F)ccc2cc(O)cc(-c3ncc4c(N5CC6CCC(C5)N6)nc(OCC5(CN(C)CC6CCN(c7ccc8c(c7)C(=O)N(C7CCC(=O)NC7=O)C8)CC6)CC5)nc4c3F)c12 (centres unmarked) [Compound 89]	–	> 1000 nM	> 1000 nM
C#Cc1cccc2cc(O)cc(-c3ncc4c(N5CC6CCC(C5)N6)nc(OCC5(CN6CCN(CC7CCN(c8cc9c(cc8F)C(=O)N(C8CCC(=O)NC8=O)C9)CC7)CC6)CC5)nc4c3F)c12 (centres unmarked) [Compound 90]	–	< 100 nM	< 100 nM
C#Cc1cccc2cc(O)cc(-c3nc(OC)c4c(N5CC6CCC(C5)N6C)nc(OCC5(CN6CCN(CC7CCN(c8ccc9c(c8)CN(C8CCC(=O)NC8=O)C9=O)CC7)CC6)CC5)nc4c3F)c12 (centres unmarked) [Compound 105]	< 100 nM	> 1000 nM	–
C#Cc1c(F)ccc2cc(O)cc(-c3nc(OC)c4c(N5CCN(C)[C@@H](CC#N)C5)nc(OCC5(CN6CCN(CC7CCN(c8ccc9c(c8)CN(C8CCC(=O)NC8=O)C9=O)CC7)CC6)CC5)nc4c3F)c12 (some centres unmarked) [Compound 106]	< 100 nM	> 1000 nM	–
C#Cc1c(F)ccc2cc(O)cc(-c3ncc4c(N5CC6CCC(C5)N6C(=O)C(F)(F)F)nc(OCC5(CN6CCN(CC7CCN(c8ccc9c(c8)CN(C8CCC(=O)NC8=O)C9=O)CC7)CC6)CC5)nc4c3F)c12 (centres unmarked) [Compound 108]	< 100 nM	–	–
C#Cc1c(F)ccc2cc(O)cc(-c3ncc4c(N5CCN(C(=O)C=C)[C@@H](CC#N)C5)nc(OCC5(CN6CCN(CC7CCN(c8ccc9c(c8)CN(C8CCC(=O)NC8=O)C9=O)CC7)CC6)CC5)nc4c3F)c12 (some centres unmarked) [Compound 109]	< 100 nM	–	–
C#Cc1c(F)ccc2cc(O)cc(-c3ncc4c(N5CC6CCC(C5)N6C(=O)CC#N)nc(OCC5(CN6CCN(CC7CCN(c8ccc9c(c8)CN(C8CCC(=O)NC8=O)C9=O)CC7)CC6)CC5)nc4c3F)c12 (centres unmarked) [Compound 110]	< 100 nM	–	–
C#Cc1c(F)ccc2cc(O)cc(-c3ncc4c(N5CC6CCC(C5)N6)nc(OCC5(CN6CCC(CN7CCC(c8ccc(NC9CCC(=O)NC9=O)cc8)CC7)CC6)CC5)nc4c3F)c12 (centres unmarked) [Compound 113]	< 100 nM	–	–
C#Cc1c(F)ccc2cc(O)cc(-c3ncc4c(N5CC6CCC(C5)N6)nc(OCC5(CN6CCC7(CC6)CCN(c6ccc8c(c6)CN(C6CCC(=O)NC6=O)C8=O)CC7)CC5)nc4c3F)c12 (centres unmarked) [Compound 114]	< 100 nM	–	–
C#Cc1c(F)ccc2cc(O)cc(-c3nc(OC)c4c(N5CC6CCC(C5)N6)nc(OCC5(CN6CCN(C7CCN(c8ccc9c(c8)C(=O)N(C8CCC(=O)NC8=O)C9=O)CC7)CC6)CC5)nc4c3F)c12 (centres unmarked) [Compound 115]	< 100 nM	–	–
C#Cc1c(F)ccc2cc(O)cc(-c3ncc4c(N5CC6CCC(C5)N6)nc(OCC5(CN6CCC7(CC6)CN(c6ccc8c(c6)CN(C6CCC(=O)NC6=O)C8=O)C7)CC5)nc4c3F)c12 (centres unmarked) [Compound 116]	< 100 nM	–	–
C#Cc1c(F)ccc2cc(O)cc(-c3ncc4c(N5CC6CCC(C5)N6)nc(OCC5(CN6CC7(C6)CN(c6ccc8c(c6)CN(C6CCC(=O)NC6=O)C8=O)C7)CC5)nc4c3F)c12 (centres unmarked) [Compound 117]	< 100 nM	–	–

Source: patent US20250018047A1, “METHODS AND COMPOSITIONS FOR TARGETED PROTEIN DEGRADATION” (Ranok Therapeutics (Hangzhou) Co. Ltd., priority 2021, published 2025)
